Assay results from paper PMC7332124, “Design, One Pot Synthesis and Molecular Docking Studies of Substituted-1H-Pyrido[2,1-b] Quinazolines as Apoptosis-Inducing Anticancer Agents” (Asian Pacific Journal of Cancer Prevention : APJCP, 2020).
Where two headings read alike, the source gives them in different places.

Columns and labels:
[1] = tested on: DU-145; assay: MTT cytotoxicity assay; format: cell-based, human; conditions: DU-145 prostate cancer, 72 h, read-out: In vitro Inhibitory Concentration (IC50)
Protocol: (§1) Various cancer cells were used to screen anticancer activity of newly synthesized compounds. Lung (A549 and NCI-H460), colon (HCT-15 and HT-29), prostate (DU-145) cancer cells maintained in RPMI-1640 media while normal lung fibroblasts cell line (HFL-1) were maintained in F-12 k medium supplemented with 10% fetal bovine serum (FBS) with 1% antibiotic-antimycotic solution (Sigma). Cells were maintained in 5% CO2 with 98% relative humidity at 37 °C in incubator. When 80-90% of confluency is reached, they were sub-cultured using 0.25% trypsin/1 mM EDTA solution for further passage. The compounds in this series were dissolved in DMSO (1 %) to prepare the stock solution of 10 mM. Further dilutions were made accordingly with respective media to obtain the required concentrations.
(§2) MTT assay measures the reduction of MTT (3-(4,5-dimethylthiazol- 2-yl)-2,5-diphenyl tetrazolium bromide) by mitochondrial succinate dehydrogenase enzyme to insoluble formazan crystals. Since reduction of MTT occurs only in metabolically active cells, the level of activity is the measure of the viability of the cells.(Pordeli et al., 2017). Briefly, cells were plated in 96-well plates at a density of 3,000 to 6,000 cells per well in 100 µl of complete medium and allowed to grow overnight. Then the cells were treated with different concentrations of the synthesized compounds and incubated for 72 h. After the treatment, 100 µl of MTT (0.5 mg/ml) was added and incubated at 37 °C for 4 h. Then MTT reagent was aspirated and formazan crystals formed were dissolved by the addition of 200 µL of DMSO for 20 min at 37 °C. The formazan product quantity was measured by using a spectrophotometric microtiter plate reader (Spectra Max, M4 Molecular devices, USA) at 570 nm wavelength(Nekkanti et al., 2017).

[2] = tested on: A549; assay: MTT cytotoxicity assay; format: cell-based, human; conditions: A549 adenocarcinoma (lung), MTT, 72 h, read-out: In vitro Inhibitory Concentration (IC50)
Protocol: as §1, §2

[3] = tested on: NCI-H460; assay: MTT cytotoxicity assay; format: cell-based, human; conditions: NCI-H460 lung carcinoma, 72 h, read-out: In vitro Inhibitory Concentration (IC50)
Protocol: as §1, §2

[4] = tested on: HCT-15; assay: MTT cytotoxicity assay; format: cell-based, human; conditions: HCT-15 colon cancer, 72 h, read-out: In vitro Inhibitory Concentration (IC50)
Protocol: as §1, §2

[5] = tested on: HFL-1 normal lung fibroblasts; assay: MTT cytotoxicity assay; format: cell-based, human; conditions: read-out: In vitro Inhibitory Concentration (IC50)
Protocol: as §1, §2

[6] = tested on: HT-29; assay: MTT cytotoxicity assay; format: cell-based, human; conditions: HT-29 colorectal cancer, 72 h, read-out: In vitro Inhibitory Concentration (IC50)
Protocol: as §1, §2

[7] = tested on: DU-145; assay: Cell growth inhibition assay (MTT, day 0 subtracted); format: cell-based, human; conditions: 72 h, read-out: In vitro Growth Inhibitory Concentration (GI50)
Protocol: as §1
(§3) Briefly, the cells were seeded on to a 96-well plate in 100 µl of medium. Following 24 h MTT reagent was added in few wells and day 0 absorbance was analyzed, and then cells were treated with compounds and incubated for an additional 72 h. After the treatment, 100 µl of MTT (0.5 mg/ml) was added and incubated at 37 °C for 4 h. Then MTT reagent was suctioned, the insoluble formazan crystals were dissolved in DMSO and formazan product formed is measured at 570 nm wavelength. The day 0 absorbance was subtracted from the 72 h incubated plates and data were plotted as a percentage of untreated control (Dai et al., 2011).

[8] = tested on: A549; assay: as above; format: cell-based, human; conditions: 72 h, read-out: In vitro Growth Inhibitory Concentration (GI50)
Protocol: as §1, §3

[9] = tested on: NCI-H460; assay: as above; format: cell-based, human; conditions: 72 h, read-out: In vitro Growth Inhibitory Concentration (GI50)
Protocol: as §1, §3

[10] = tested on: HCT-15; assay: as above; format: cell-based, human; conditions: 72 h, read-out: In vitro Growth Inhibitory Concentration (GI50)
Protocol: as §1, §3

[11] = tested on: HFL-1 normal lung fibroblasts; assay: as above; format: cell-based, human; conditions: read-out: In vitro Growth Inhibitory Concentration (GI50)
Protocol: as §1, §3

[12] = tested on: HT-29; assay: as above; format: cell-based, human; conditions: 72 h, read-out: In vitro Growth Inhibitory Concentration (GI50)
Protocol: as §1, §3

Molecule | IC50 [1] | IC50 [2] | IC50 [3] | IC50 [4] | IC50 ([5]; 72 h) | IC50 [6] | GI50 [7] | IC50 ([1]; Homo sapiens) | IC50 ([2]; Homo sapiens) | IC50 ([3]; Homo sapiens) | IC50 ([4]; Homo sapiens) | IC50 ([5]; Homo sapiens, HFL1, 72 h) | IC50 ([6]; Homo sapiens) | melting point | GI50 ([7]; Homo sapiens) | GI50 ([8]; Homo sapiens) | GI50 ([9]; Homo sapiens) | GI50 ([10]; Homo sapiens) | GI50 ([11]; Homo sapiens, HFL1, 72 h) | GI50 ([12]; Homo sapiens) | other results
11-(4-trimethoxyphenyl)-2, 3, 4, 11-tetrahydro-1H-pyrido[2,1-b] quinazoline [Compound 4h] | > 30 µM | > 30 µM | > 30 µM | > 30 µM | > 30 µM | > 30 µM | > 30 µM |  |  |  |  |  |  |  |  |  |  |  |  |  | GI50 [8]: > 30 µM; GI50 [9]: > 30 µM; GI50 [10]: > 30 µM; GI50 ([11]; 72 h): > 30 µM; GI50 [12]: > 30 µM
Cc1ccc(C2C3=C(CCCC3)N=C3C=CC=CN32)cc1 (stereo not drawn) [Compound 4e] | 23.2 ± 0.25 µM | 43.1 ± 2.43 µM | 43.2 ± 2.58 µM | 40.9 ± 0.55 µM | 85 ± 3.8 µM | 39.5 ± 1.4 µM | 17.7 ± 0.13 µM |  |  |  |  |  |  |  |  |  |  |  |  |  | GI50 [8]: 29.5 ± 0.79 µM; GI50 [9]: 20.8 ± 1.82 µM; GI50 [10]: 23.44 ± 0.2 µM; GI50 ([11]; 72 h): 68.6 ± 3.2 µM; GI50 [12]: 15.8 ± 0.97 µM
ClC1=CN2C(=NC3=C(CCCC3)C2c2ccc(Cl)cc2)C=C1 (stereo not drawn) [Compound 4f, 8-Chloro-11-(4-chlorophenyl)-2,3,4, 11-tetrahydro-1H-pyrido [2,1-b] quinazoline] |  |  |  |  |  |  |  | 16.08 ± 0.14 µM | 12.8 ± 1.5 µM | 12.6 ± 0.35 µM | 19.3 ± 1.16 µM | 15.2 ± 0.3 µM | 15.4 ± 0.11 µM | 131 to 132 °C | 11.3 ± 0.34 µM | 8.64 ± 0.4 µM | 9.62 ± 0.41 µM | 12.9 ± 0.73 µM | 11.6 ± 0.17 µM | 11.43 ± 0.06 µM | 
O=[N+]([O-])c1ccc(C2C3=C(CCCC3)N=C3C=CC=CN32)cc1 (stereo not drawn) [Compound 4c, 11-(4-Nitrophenyl)-2,3,4, 11-tetrahydro-1H-pyrido[2,1-b]quinazoline] |  |  |  |  |  |  |  | > 30 µM | > 30 µM | > 30 µM | > 30 µM | > 30 µM | > 30 µM | 150 to 151 °C | > 30 µM | > 30 µM | > 30 µM | > 30 µM | > 30 µM | > 30 µM | 
C1=CC2=NC3=C(CCCC3)C(c3ccccc3)N2C=C1 (stereo not drawn) [Compound 4a, 11-Phenyl-2,3,4, 11-tetrahydro-1H-pyrido [2,1-b] quinazoline] |  |  |  |  |  |  |  | > 30 µM | > 30 µM | > 30 µM | > 30 µM | > 30 µM | > 30 µM | 154 to 156 °C | > 30 µM | > 30 µM | > 30 µM | > 30 µM | > 30 µM | > 30 µM | 
COc1ccc(C2C3=C(CCCC3)N=C3C=CC=CN32)cc1 (stereo not drawn) [Compound 4d, 11-(4-Methoxyphenyl)-2,3,4, 11-tetrahydro-1H-pyrido[2,1-b]quinazoline] |  |  |  |  |  |  |  | > 30 µM | > 30 µM | > 30 µM | > 30 µM | > 30 µM | > 30 µM | 88 to 89 °C | > 30 µM | > 30 µM | > 30 µM | > 30 µM | > 30 µM | > 30 µM | 
Clc1ccc(C2C3=C(CCCC3)N=C3C=CC=CN32)cc1 (stereo not drawn) [Compound 4b, 11-(4-Chlorophenyl)-2,3,4, 11-tetrahydro-IH-pyrido [2,1-b] quinazoline] | > 30 µM | > 30 µM | > 30 µM | > 30 µM | > 30 µM | > 30 µM | > 30 µM |  |  |  |  |  |  |  |  |  |  |  |  |  | GI50 [8]: > 30 µM; GI50 [9]: > 30 µM; GI50 [10]: > 30 µM; GI50 ([11]; 72 h): > 30 µM; GI50 [12]: > 30 µM
Fc1ccc(C2C3=C(CCCC3)N=C3C=CC(Cl)=CN32)cc1 (stereo not drawn) [Compound 4g, 8-chloro-11-(4-fluorophenyl)-2,3,4,11-tetrahydro-1H-pyrido[2,1-b]quinazoline] |  |  |  |  |  |  |  | 32.9 ± 3.77 µM | 25.5 ± 3.98 µM | 41.5 ± 1.27 µM | 28.6 ± 1.96 µM | 63.1 ± 1.79 µM | 41.3 ± 1.43 µM | 88 to 93 °C | 7.37 ± 2.5 µM | 9.23 ± 0.93 µM | 17.5 ± 2.05 µM | 10 ± 0.97 µM | 41.7 ± 0.98 µM | 20.8 ± 3.74 µM | 
C1=CC2=NC3=C(CCCC3)C(c3c[nH]c4ccccc34)N2C=C1 (stereo not drawn) [Compound 4j, 11-(1H-indol-3-yl)-2,3,4, 11-tetrahydro-1H-pyrido [2,1-b]quinazoline] |  |  |  |  |  |  |  | 12.6 ± 0.23 µM | 8.98 ± 0.32 µM | 9.27 ± 0.54 µM | 10.9 ± 0.4 µM | 9.31 ± 0.32 µM | 7.25 ± 0.38 µM | 180 to 182 °C | 8.1 ± 0.1 µM | 5.79 ± 0.14 µM | 7.1 ± 0.19 µM | 7.81 ± 0.65 µM | 7.67 ± 0.22 µM | 4.4 ± 0.2 µM | 
